Source: PMC4418665, “Cyclization of the Urokinase Receptor-Derived Ser-Arg-Ser-Arg-Tyr Peptide Generates a Potent Inhibitor of Trans-Endothelial Migration of Monocytes” (PLoS ONE, 2015)
Peptide text beside a SMILES is read from it.

Legend:
FPR1 [1] = biological target: T1, FPR1 (Homo sapiens, UniProt P21462); experiment: Ligand binding assay, competition with FITC-fMLF at 4°C, RBL-2H3/ETFR cells; design: expressed in transfected cells; conditions: 100 nM peptide pre-incubated 60 min at 4°C, then 10 nM FITC-fMLF 60 min at 4°C; cell-associated fluorescence; triplicates
T1 sequence (P21462 1-350): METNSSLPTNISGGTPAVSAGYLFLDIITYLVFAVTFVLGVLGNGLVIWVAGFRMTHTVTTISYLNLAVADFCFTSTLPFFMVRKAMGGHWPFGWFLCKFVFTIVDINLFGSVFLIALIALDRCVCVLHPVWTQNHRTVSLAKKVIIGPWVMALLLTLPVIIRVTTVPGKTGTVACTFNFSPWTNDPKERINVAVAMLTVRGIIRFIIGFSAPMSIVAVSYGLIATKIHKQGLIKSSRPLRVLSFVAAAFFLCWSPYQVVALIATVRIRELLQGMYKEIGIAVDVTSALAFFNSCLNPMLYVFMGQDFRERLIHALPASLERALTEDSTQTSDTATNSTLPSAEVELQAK
Experimental: (§1) We have previously documented that SRSRY competes with the bacterial-derived N-formyl-methionyl-leucyl-phenylalanine peptide (fMLF) for binding to FPR type 1 (FPR1) and that both SRSRY and fMLF promote cell migration by triggering FPR1 internalization. […] Quantification of cell-associated fluorescence was assessed by reading cell lysates with a fluorescence plate reader. RBL-2H3 cells lack FPR1, thus they display very low uptake that was not saturable with unlabeled fMLF (Fig 2A). […] To evaluate the effect of [SRSRY] on agonist-dependent FPR1 internalization, binding experiments were performed at 37°C. […] Thus, we assessed whether [SRSRY] elicits effects on fMLF-directed cell migration. RBL-2H3/ETFR cell migration toward 10 nM fMLF was monitored in real-time for 4 hours as Cell Index changes due to the adhesion of migrating cells to microelectrodes using the xCELLigence RTCA technology as previously described. […]
(§2) Fig 2 Both linear and cyclic SRSRY peptides bind to FPR1. […] Fluorimetric measurement of cell-associated fluorescence was assed using 485 nm excitation and 535 nm emission filters. Data are expressed as a percentage of the fluorescence associated to RBL-2H3 cells exposed to FITC-fMLF alone (CTL = 100%) and represent a mean ± SD from triplicates. *Statistical significance (t-test) against None with p<0.001. […] Cell migration of RBL-2H3/ETFR cells monitored by the xCELLigence system. […]

FPR1 [2] = biological target: T1, FPR1; experiment: Agonist-dependent FPR1 internalization at 37°C, fluorescence microscopy, RBL-2H3/ETFR cells; type: cell-based; design: expressed in transfected cells; conditions: 100 nM peptide 30 min at 37°C, then 10 nM FITC-fMLF 30 min at 37°C
Experimental: as §1, §2

SMILES	binding of FITC-fMLF to RBL-2H3/ETFR cells (FPR1 [1])	agonist-dependent FPR1 internalization in RBL-2H3/ETFR cells (FPR1 [2])
N=C(N)NCCC[C@H](NC(=O)[C@H](CO)NC(=O)[C@H](CCCNC(=N)N)NC(=O)[C@@H](N)CO)C(=O)N[C@@H](Cc1ccc(O)cc1)C(N)=O [SRSRY, H-Ser-Arg-Ser-Arg-Tyr-NH2] (H-SRSRY-NH2)	reduced to the basal level	prevented
N=C(N)NCCC[C@@H]1NC(=O)[C@H](CO)NC(=O)[C@H](Cc2ccc(O)cc2)NC(=O)[C@H](CCCNC(=N)N)NC(=O)[C@H](CO)NC1=O [[SRSRY], [Ser-Arg-Ser-Arg-Tyr]] (cyclo(RSRYS))	inhibits binding of fluorescent agonist to RBL-2H3/ETFR cells to a similar extent as compared to fMLF or SRSRY	prevented agonist-dependent FPR1 internalization
